Experimental data published in publication doi:10.1101/2021.10.04.463106, “A high throughput screening assay for inhibitors of SARS-CoV-2 pseudotyped particle entry” (bioRxiv, 2021).
Where a name gives a salt, the structure may show the parent alone.

What was measured:
[1] = tested on: SARS-CoV-2-S PP (Wuhan-Hu-1 spike); assay: microbe, parasite or virus in culture; assay type: cell-based; conditions: Severe acute respiratory syndrome coronavirus 2, read-out: PP EC50
[2] = ATP content cytotoxicity assay; conditions: human, HEK293-ACE2 cells
[3] = tested on: SARS-CoV-2 (USA_WA1/2020); assay type: cell-based
[4] = tested on: VSV-G PP; assay type: cell-based, vesicular stomatitis virus

Compound | EC50 [1] [nM] | EC50 at 48 h [2] [nM] | protective effect against cell death caused by the virus (CPE rescue) [3] | potency in the VSV-G PP entry counter assay compared with SARS-CoV-2-S PP entry [4]
CCOC(=O)[C@H]1O[C@@H]1C(=O)N[C@@H](CC(C)C)C(=O)NCCC(C)C [Aloxistatin, aloxistatin] | 190 | > 50000 | – | –
Cc1cccc(/C=N/Nc2cc(N3CCOCC3)nc(OCCc3ccccn3)n2)c1 [Apilimod, apilimod] | 120 | 9310 | – | –
COc1cc(N2CCC(N3CCN(C)CC3)CC2)ccc1Nc1ncc(Cl)c(Nc2ccccc2P(C)(C)=O)n1 [Brigatinib, brigatinib] | 4300 | 670 | – | –
CCCC[C@@H](C=O)NC(=O)[C@H](CC(C)C)NC(=O)OCc1ccccc1 [Calpeptin, calpeptin] | 1200 | > 50000 | – | –
Oc1ccc(Cl)cc1Cc1cc(Cl)ccc1O [Dichlorophen, dichlorophen] | 30 | – | not confirmed | –
Nc1ncnc2c1ncn2CCOCP(=O)(O)O [adefovir] | – | – | – | same potency
C[C@@H]1CCO[C@H]2Cn3cc(C(=O)NCc4ccc(F)cc4F)c(=O)c(O)c3C(=O)N12 [dolutegravir] | – | – | – | same potency
COc1cc2c(cc1Cc1cccc(Cl)c1F)c(=O)c(C(=O)O)cn2[C@H](CO)C(C)C [elvitegravir] | – | – | – | same potency
CC(C)OC(=O)OCOP(=O)(CO[C@H](C)Cn1cnc2c(N)ncnc21)OCOC(=O)OC(C)C [tenofovir disoproxil fumarate] | – | – | – | same potency
